Where a SMILES comes first, the peptide text is derived from it. Bridges are numbered along the chain shown (N, C = ends). The star is where a group is joined. Acetyl(2-naphthyloxy) = O=C(COc1ccc2ccccc2c1)*
Test: Aqueous solubility of compound
Assay type: physicochemical
Settings: buffer

- solubility: Insoluble
SMILES: CC[C@H](C)[C@H](NC(=O)[C@H](CCCNC(=N)N)NC(=O)[C@H](CO)NC(=O)[C@H](Cc1ccc(O)cc1)NC(=O)[C@H](CCCNC(=N)N)NC(=O)[C@@H]1CSSC[C@H](NC(=O)COc2ccc3ccccc3c2)C(=O)N[C@@H](CCC(N)=O)C(=O)N[C@@H](CC(N)=O)C(=O)N1)C(=O)N[C@@H](CCC(=O)O)C(=O)N[C@@H](Cc1c[nH]c2ccccc12)C(=O)N[C@H](C(=O)N[C@@H](CCCCN)C(=O)N[C@H](C(=O)N[C@@H](CCC(N)=O)C(=O)N[C@H](C(=O)N[C@H](C(=O)N[C@@H](CO)C(=O)N[C@@H](CCCCN)C(=O)N[C@@H](CC(C)C)C(=O)N[C@@H](CCCNC(=N)N)C(=O)N[C@@H](CC(C)C)C(N)=O)[C@@H](C)CC)[C@@H](C)CC)[C@@H](C)CC)[C@@H](C)CC ({Acetyl(2-naphthyloxy)}-CQNCRYSRIEWIKIQIISKLRL-NH2; disulfide 1-4)

From ChEMBL document CHEMBL4480415, “Design and synthesis of potent myostatin inhibitory cyclic peptides” (Bioorg Med Chem, 2019)
